Test results as given in US6699682B2, “Assay for inhibitors of fatty-acid amide hydrolase” (The Scripps Research Institute, priority 1995, dated 2004).

Target: T1, recombinant expressed rat FAAH (Rattus norvegicus, UniProt P97612)
T1 construct: expressed in transfected cells; host or cells: COS-7 cells, transient, pcDNA3; dounce-homogenised cell extract
T1 sequence (P97612 1-579): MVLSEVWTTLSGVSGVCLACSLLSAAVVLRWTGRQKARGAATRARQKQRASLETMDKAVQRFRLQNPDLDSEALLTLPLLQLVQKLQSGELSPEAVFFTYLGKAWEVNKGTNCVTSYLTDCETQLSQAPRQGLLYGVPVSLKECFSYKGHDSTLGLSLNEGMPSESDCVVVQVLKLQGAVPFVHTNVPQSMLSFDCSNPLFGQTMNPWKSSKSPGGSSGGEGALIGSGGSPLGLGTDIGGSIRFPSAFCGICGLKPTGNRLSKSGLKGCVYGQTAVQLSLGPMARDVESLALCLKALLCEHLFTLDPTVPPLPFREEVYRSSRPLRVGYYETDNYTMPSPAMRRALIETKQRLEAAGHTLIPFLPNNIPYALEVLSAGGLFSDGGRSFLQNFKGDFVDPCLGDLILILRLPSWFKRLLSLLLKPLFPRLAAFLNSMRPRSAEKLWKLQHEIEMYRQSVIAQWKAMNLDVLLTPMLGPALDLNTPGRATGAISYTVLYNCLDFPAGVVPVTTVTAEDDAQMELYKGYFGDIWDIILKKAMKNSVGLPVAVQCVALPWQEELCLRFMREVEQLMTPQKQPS
Test: FAAH hydrolysis assays with 14C-labeled fatty acid amide substrates (TLC, scintillation counting)
Type: biochemical
Details: for Rate of Hydrolysis: 35 μg transfected COS-7 cell protein, 5 minutes, 37° C.
Description: Therefore, COS-7 cells transfected with the rat FAAH cDNA were assayed for anandamide hydrolase activity. To assess the enzymatic activity of the expressed recombinant fatty acid amide hydrolases of this invention on labeled anandamide, the following enzymatic assay was performed. ^14C-anandamide was synthesized as follows: 12.5 μCi (specific activity of 50 μCi/μM) of ^14C arachidonic acid (Moravek Biochemicals) was dissolved in 100 μl CH2Cl2, cooled to 0° C., and treated with excess oxalyl chloride. The reaction mixture was stirred at 25° C. for 6 hours, after which time the solvent was evaporated. The remaining residue was cooled to 0° C., treated with a large excess of ethanolamine, and stirred at 25° C. for 15 minutes. The reaction mixture was then partitioned between ethyl acetate and 2 M HCl, and the organic layer was washed with water and then evaporated to dryness. The resulting ^14C-anandamide was diluted with unlabeled anandamide to a final specific activity of 5 μCi/μM in ethanol. Approximately 1 μCi of ^14C-anandamide and 20 μl of dounce homogenized COS-7 cell extract were used for each anandamide hydrolase assay as detailed above for the oleamide hydrolase assays. Briefly, FAAH hydrolysis assays were conducted in triplicate with 100 μM substrate, 35 μg of rat transfected COS-7 cell protein for 5 minutes at 37° C. (except in the case of stearic amide, where due to low solubility, 20 μM substrate comparison to oleamide were conducted). Products were separated on TLC as described previously, scraped into scintillation fluid, and radioactivity was quantitated by scintillation counting. Substrate hydrolysis in the presence of equal amounts of untransfected COS-7 cell protein extract served as background control in all cases and was substracted from FAAH hydrolysis rates to give the data as presented below.
To further assess the substrate specificity spectrum of enyzmatic hydolytic activity of the recombinant expressed proteins of this invention, other ^14C-labeled fatty acid amides were synthesized as described in Section B6 and above for ^14C-oleamide, with the exception of anandamide as described.
Where indicated in the table the anandamide and oleamide hydrolysis rates are considered to be 100% of FAAH activity to which other fatty acid amide hydrolysis rates are compared.

Compound: CCCCCCCC/C=C\CCCCCCCC(N)=O [cis-9,10-octadecenoamide, Cis-9,10-octadecenoamide]
- rate difference between hydrolysis of oleamide and stearic amide: nearly twenty fold
- % of FAAH activity (oleamide hydrolysis rate = 100%) (20 μM substrate): 100%
- Rate of Hydrolysis (20 μM substrate): 41 ± 2 nmol/min/mg
- % of FAAH activity (anandamide hydrolysis rate = 100%) (100 μM substrate): 72.6%
- Rate of Hydrolysis (100 μM substrate): 242 ± 20 nmol/min/mg
